In BindingDB's records for doi:10.1111/j.1747-0285.2007.00488.x (Shanghai Jiao Tong University, 2007):

Molecular target: Vascular endothelial growth factor receptor 2 (Homo sapiens, UniProt P35968)
Test: Kinase Inhibition Assay

Vascular endothelial growth factor receptor 2, sequence (P35968 whole entry): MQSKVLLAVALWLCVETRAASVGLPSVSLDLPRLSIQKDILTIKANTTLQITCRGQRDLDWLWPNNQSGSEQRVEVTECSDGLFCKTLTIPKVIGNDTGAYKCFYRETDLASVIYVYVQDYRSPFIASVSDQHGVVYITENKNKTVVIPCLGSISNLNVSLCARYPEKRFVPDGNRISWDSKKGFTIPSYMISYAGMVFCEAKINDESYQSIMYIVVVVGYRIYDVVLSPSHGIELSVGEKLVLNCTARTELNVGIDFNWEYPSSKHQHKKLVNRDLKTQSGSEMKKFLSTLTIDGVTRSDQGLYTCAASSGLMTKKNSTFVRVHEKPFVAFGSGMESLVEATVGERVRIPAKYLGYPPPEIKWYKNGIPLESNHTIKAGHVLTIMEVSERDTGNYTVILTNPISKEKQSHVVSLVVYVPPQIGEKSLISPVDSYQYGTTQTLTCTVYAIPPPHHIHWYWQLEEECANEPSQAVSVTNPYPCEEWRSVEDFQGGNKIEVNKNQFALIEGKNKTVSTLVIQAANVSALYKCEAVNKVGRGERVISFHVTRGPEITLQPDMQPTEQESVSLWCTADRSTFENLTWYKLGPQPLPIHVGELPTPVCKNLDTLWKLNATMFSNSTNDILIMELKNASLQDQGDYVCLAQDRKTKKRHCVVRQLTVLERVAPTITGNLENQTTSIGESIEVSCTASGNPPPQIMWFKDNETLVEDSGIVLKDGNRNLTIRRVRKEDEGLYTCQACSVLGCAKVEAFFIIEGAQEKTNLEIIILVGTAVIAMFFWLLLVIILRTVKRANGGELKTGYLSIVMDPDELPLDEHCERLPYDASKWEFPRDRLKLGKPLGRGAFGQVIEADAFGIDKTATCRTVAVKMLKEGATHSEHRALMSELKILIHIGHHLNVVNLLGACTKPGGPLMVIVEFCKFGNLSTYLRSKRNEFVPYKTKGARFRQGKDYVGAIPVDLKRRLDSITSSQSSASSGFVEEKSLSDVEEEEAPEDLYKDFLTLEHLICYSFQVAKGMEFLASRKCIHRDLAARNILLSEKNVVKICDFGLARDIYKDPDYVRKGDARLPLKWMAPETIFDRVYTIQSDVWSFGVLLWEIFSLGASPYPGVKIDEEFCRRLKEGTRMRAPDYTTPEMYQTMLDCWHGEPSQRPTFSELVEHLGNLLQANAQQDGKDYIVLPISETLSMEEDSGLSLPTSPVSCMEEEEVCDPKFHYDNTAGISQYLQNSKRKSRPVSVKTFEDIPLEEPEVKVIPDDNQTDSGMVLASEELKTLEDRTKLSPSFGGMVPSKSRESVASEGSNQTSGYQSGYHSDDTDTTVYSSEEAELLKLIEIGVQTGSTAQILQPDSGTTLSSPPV

## NC[C@@H]1O[C@H](O[C@H]2[C@@H](O)[C@H](O[C@@H]3[C@@H](O)[C@H](N)C[C@H](N)[C@H]3O[C@H]3O[C@H](CN)[C@@H](O)[C@H](O)[C@H]3N)O[C@@H]2CO)[C@H](N)[C@@H](O)[C@@H]1O [KDR Kinase Inhibitor, 3]
  IC50: 18 nM
